From patent US20260234651A1, “ACETYL-COA CARBOXYLASE INHIBITOR RESISTANT SORGHUM” (PIONEER HI-BRED INTERNATIONAL, INC., priority 2023, published 2026)

Key:
Type in all cases: in vivo, Sorghum bicolor
[1] = system: control plants without the W2032C ACCase edit; assay: Field tolerance test, summary in words; conditions: all plants dead at 10-14 days post spray
Protocol: (§1) The ACCase edited plants generated in Example 1 were outcrossed with 3 male sterile lines in a controlled environment. The F1 plants which contain a single copy of the W2032C edit in the ACCase gene and the edited elite inbred line containing 2 copies of the W2032C ACCase (hereinafter referred to as […]) along with the non-edited elite inbred (wt control) and the 3 male sterile lines were tested in the field for efficacy. Four short rows, each row with ~100 seedlings, were planted for each variety in replicate. Once the plants reached the 5-6 leaves stage, replicate 1 for each variety was treated with a 1× dose of Assure II (Quizalofop-P-ethyl) and replicate 2 for each variety was treated with a 2× dose of Assure II (Quizalofop-P-ethyl). Plants were then scored for tolerance at 7- and 14-days post application. The plots were scored by giving a 1-9 score to each plot, with 1 being dead and 9 no visible response.

[2] = system: three F1 hybrids with a single copy of the W2032C ACCase edit; assay: Field tolerance test, summary in words; conditions: 1x or 2x Assure II
Protocol: as §1

[3] = system: elite inbred_W2032C (2 copies of W2032C ACCase); assay: Field tolerance test, Quizalofop-P-ethyl (Assure II) spray; conditions: for 7-day Post Application Score / 14-day Post Application Score: elite inbred_W2032C, 2 copies
Protocol: as §1
(§2) The PH2545MW_W2032C was given score of 7 with 1× dose of Quizalofop-P-ethyl application (Table 4), as some twisting of the leaves due to herbicide injury was observed, however, after a week or so the twisting of the leaves may not be visible anymore because they were growing out of it, which may be indicated by the score change from 5 to 6 at day 7 and day 14 post 2× dose of Quizalofop-P-ethyl application.

[4] = system: F1 Hybrid 2_W2032C (single copy of W2032C ACCase); assay: as above; conditions: 1 copy, 1-9 score, 1 dead, 9 no visible response
Protocol: as §1, §2

[5] = system: Male Sterile 2_WT; assay: as above; conditions: 0 copies, 1-9 score, 1 dead, 9 no visible response
Protocol: as §1, §2

[6] = system: elite inbred_WT (non-edited elite inbred, wt control); assay: as above; conditions: 0 copies W2032C, 1-9 score, 1 dead, 9 no visible response
Protocol: as §1, §2

[7] = system: F1 Hybrid 1_W2032C (single copy of W2032C ACCase); assay: as above; conditions: 1 copy, 1-9 score, 1 dead, 9 no visible response
Protocol: as §1, §2

[8] = system: F1 Hybrid 3_W2032C (single copy of W2032C ACCase); assay: as above; conditions: 1 copy, 1-9 score, 1 dead, 9 no visible response
Protocol: as §1, §2

[9] = system: Male Sterile 3_WT; assay: as above; conditions: 0 copies, 1-9 score, 1 dead, 9 no visible response
Protocol: as §1, §2

[10] = system: Male Sterile 1_WT; assay: as above; conditions: 0 copies, 1-9 score, 1 dead, 9 no visible response
Protocol: as §1, §2

[11] = system: wild-type control plants; assay: Spray test of T1 plants with quizalofop-p-ethyl; conditions: 7 fl. ounce (0.034-0.083 lb ai), all died
Excerpt: (§3) ACCase edited T1 seeds were planted in flats, all seeds germinated and were heathy looking. Additionally, they were all able to produce T2 seeds with high seed count setting. Nineteen homozygous ACCase edited T1 plants at the 8-leaf stage were sprayed with quizalofop-p-ethyl at a rate of 7 fl. ounce (0.034-0.083 lb ai), which is the average dose from the Assure II label. […] A subset of the T1 plants after the spray test were kept to maturity and all produced T2 seeds with good seed setting. In contrast, the wild-type control plants were all susceptible to the quizalofop-p-ethyl spray and died.

[12] = system: homozygous ACCase edited T1 plants; assay: Spray test of T1 plants with quizalofop-p-ethyl; conditions: all 19 homozygous ACCase edited T1 plants, 8-leaf stage, 7 fl. ounce (0.034-0.083 lb ai)
Excerpt: as §3

[13] = 1x dose, 1-9 score, 1 dead, 9 no visible response
[14] = 2x dose, 1-9 score, 1 dead, 9 no visible response

CCOC(=O)[C@@H](C)Oc1ccc(Oc2cnc3cc(Cl)ccc3n2)cc1 [Quizalofop-P-ethyl]
tolerance to the herbicide in the field [1]: no tolerance
tolerance to the herbicide in the field [2]: some tolerance
field tolerance score (day not stated) ([3]; PH2545MW_W2032C, 1x dose, some twisting of the leaves, 1-9 score, 1 dead, 9 no visible response): 7
7-day Post Application Score [3, 13]: 7
14-day Post Application Score [3, 13]: 7
7-day Post Application Score [3, 14]: 5
14-day Post Application Score [3, 14]: 6
tolerance to the herbicide in the field ([3]; inbred_W2032C plants, 1x or 2x Assure II at 5-6 leaves stage): tolerance
7-day Post Application Score ([4]; 1x dose): 5
14-day Post Application Score ([4]; 1x dose): 4
7-day Post Application Score ([4]; 2x dose): 5
14-day Post Application Score ([4]; 2x dose): 3
7-day Post Application Score ([5]; 1x dose): 2
14-day Post Application Score ([5]; 1x dose): 1
7-day Post Application Score ([5]; 2x dose): 2
14-day Post Application Score ([5]; 2x dose): 1
7-day Post Application Score ([6]; 1x dose): 3
14-day Post Application Score ([6]; 1x dose): 1
7-day Post Application Score ([6]; 2x dose): 3
14-day Post Application Score ([6]; 2x dose): 1
7-day Post Application Score ([7]; 1x dose): 5
14-day Post Application Score ([7]; 1x dose): 4
7-day Post Application Score ([7]; 2x dose): 4
14-day Post Application Score ([7]; 2x dose): 3
7-day Post Application Score ([8]; 1x dose): 5
14-day Post Application Score ([8]; 1x dose): 3
7-day Post Application Score ([8]; 2x dose): 5
14-day Post Application Score ([8]; 2x dose): 4
7-day Post Application Score ([9]; 1x dose): 3
14-day Post Application Score ([9]; 1x dose): 1
7-day Post Application Score ([9]; 2x dose): 2
14-day Post Application Score ([9]; 2x dose): 1
7-day Post Application Score ([10]; 1x dose): 2
14-day Post Application Score ([10]; 1x dose): 1
7-day Post Application Score ([10]; 2x dose): 2
14-day Post Application Score ([10]; 2x dose): 1
response of plants to the herbicide spray [11]: susceptible
response of plants to the herbicide spray [12]: resistance (tolerance)
